The values that follow come from PMC4653046 (Bioorganic & medicinal chemistry letters, 2015).

The test system of data set [1] is NRAS mutant human HT-1080 fibrosarcoma. Conditions: nude mice; cited from earlier work.
Data set [2] in a line: metabolic stability in mouse liver microsomes. Conditions: for metabolic stability: mouse liver microsomes, 37 °C, pH 7.4, NADPH-generating system; for half-life: mouse, liver microsomes, pH 7.4. Format: in vitro ADME. (In general: Liver microsomes are vesicles of endoplasmic reticulum, rich in cytochrome P450 enzymes.)
The nature of data set [3]: water solubility. Format: physicochemical.
In data set [4] the test system is BJ-derived cell lines (BJeLR, DRD, BJeHLT, BJeH). Put plainly: potency and genotype-selective lethality in BJ-derived isogenic cell lines. Format: cell-based, human. Conditions: for potency in HRAS^G12V-overexpressing cell lines: BJeLR, DRD cells.
Data set [5] concerns HT-1080 human fibrosarcoma cell line. Put plainly: growth inhibition of HT-1080 cells. Format: cell-based. Conditions: for growth inhibition: HT-1080 cells, 48 h treatment.
Data set [6] is described as follows: stability in mouse plasma. Format: in vitro ADME. Conditions: 500 ng/mL, 37 °C, up until 120 min.

≈ marks a conversion by molar mass, not a printed value. A value given as a limit tells only on which side of the number the result lay.

For `CC(C)Oc1ccc(CN2CCNCC2)cc1-n1c(CN2CCN(C(=O)COc3ccc(Cl)cc3)CC2)nc2ccccc2c1=O` [PE, piperazine erastin], the “effect on the growth of already established tumors” value in data set [1] is recorded as “limited effect”.
Regarding `COc1ccc(CN2CCN(CC(=O)c3ccc(OC(C)C)c(-n4c(CN5CCN(C(=O)COc6ccc(Cl)cc6)CC5)nc5ccccc5c4=O)c3)CC2)cc1` [PMB-PKE, N-p-methoxybenzylpiperazine ketone erastin], in data set [2], the metabolic stability entry was “medium to poor metabolic stability”.
By solubility is commonly meant the concentration that dissolves in the medium under given conditions. A high value points to much dissolved substance. Consider `CCOc1ccccc1-n1c(C(C)N2CCN(C(=O)COc3ccc(Cl)cc3)CC2)nc2ccccc2c1=O` (centres unmarked) [Erastin, erastin], for which the solubility in data set [3] turned out to be 86 µM (≈ 47 µg/mL).
For `CC(C)Oc1ccc(C(=O)CF)cc1-n1c(CN2CCN(C(=O)COc3ccc(Cl)cc3)CC2)nc2ccccc2c1=O` [FKE, α-fluoro ketone erastin], in data set [2], the metabolic stability result is “medium to poor metabolic stability”. In data set [4], the “potency in HRAS^G12V-overexpressing cell lines” value (“potency” below) is “low nanomolar potencies”.
As a reminder, the half-life is how long it takes for the measured level to halve. A higher half-life goes with slow decline. With `CC(=O)c1ccc(OC(C)C)c(-n2c(CN3CCN(C(=O)COc4ccc(Cl)cc4)CC3)nc3ccccc3c2=O)c1` [KE], the half-life in data set [2] is under 5 min. Besides, the “potency” value in data set [4] was “low nanomolar potencies”.
One may read the GI50 as the concentration giving 50% growth inhibition. With `CC(C)Oc1ccc(C(=O)Cn2ccnc2)cc1-n1c(CN2CCN(C(=O)COc3ccc(Cl)cc3)CC2)nc2ccccc2c1=O` [IKE, imidazole ketone erastin], the growth inhibition entry in data set [5] is reported as “complete growth inhibition”. In data set [5] (Homo sapiens, HT-1080, 48 h), this compound displayed a concentration for 50% growth inhibition (GI50) of 310 nM. Moreover, in data set [6], the “stability in mouse plasma” value is reported as “remained stable”. For the same compound, the “selective lethality to BJeLR and DRD cells compared to BJeH and BJeHLT cells” value in data set [4] (4 isogenic BJ-derived cell lines) is on record as “selective lethality”. Besides, the “potency” value in data set [4] is given as “low nanomolar potencies”.
Consider `C=CCN1CCN(CC(=O)c2ccc(OC(C)C)c(-n3c(CN4CCN(C(=O)COc5ccc(Cl)cc5)CC4)nc4ccccc4c3=O)c2)CC1` [APKE, N-allylpiperazine ketone erastin], for which the metabolic stability entry in data set [2] is “medium to poor metabolic stability”.
In the case of `CC(C)Oc1ccc(C(=O)CN2CCN(C)CC2)cc1-n1c(CN2CCN(C(=O)COc3ccc(Cl)cc3)CC2)nc2ccccc2c1=O` [MPKE, N-methylpiperazine ketone erastin], the metabolic stability entry in data set [2] is “medium to poor metabolic stability”.
In data set [2], `CC(C)Oc1ccc(C=O)cc1-n1c(CN2CCN(C(=O)COc3ccc(Cl)cc3)CC2)nc2ccccc2c1=O` [AE, aldehyde erastin, reference compound] yielded a half-life of under 5 min. For the same compound, the “potency” value in data set [4] was “low nanomolar potencies”.
In the case of `CC(C)Oc1ccc(C(=O)CN2CCNCC2)cc1-n1c(CN2CCN(C(=O)COc3ccc(Cl)cc3)CC2)nc2ccccc2c1=O` [PKE, piperazine ketone erastin], in data set [5], the growth inhibition entry is “complete growth inhibition”. The “stability in mouse plasma” value in data set [6] was “remained stable”. The half-life in data set [2] is over 90 min. Moreover, in data set [4], the “potency” value was “low nanomolar potencies”.
